We go through 6 compounds from paper PMC8838521, “Antimicrobial, Cytotoxic and Mutagenic Activity of Gemini QAS Derivatives of 1,4:3,6-Dianhydro-L-iditol” (Molecules, 2022).

Data set [1] is described as follows: Solubility observed during assays. It counts as physicochemical. Conditions: observed during antimicrobial assays; DMSO used for solubilisation.
The test system of data set [2] is Staphylococcus aureus ATCC 25923. Description: Antimicrobial activity, microdilution MIC, S. aureus reference strain. It counts as cell-based. On the procedure:
(§1) The antimicrobial potential of the tested agents was evaluated against two reference strains of bacteria: Staphylococcus aureus ATCC 25923 and Escherichia coli K12, two reference strains of pathogenic yeasts, Candida albicans ATCC10231 and Candida glabrata DSMZ11226, as well as 20 strains of clinical isolates of S. aureus collected from patients with skin and soft tissue infections (n = 8) and strains derived from subclinical bovine mastitis milk samples (n = 12). Four of these strains, two isolated from human infections and two isolated from bovine mastitis, were classified as MRSA (Methicillin-resistant Staphylococcus aureus). All of them were mecA positive and their methicillin resistance was confirmed with the disc diffusion assay. The remaining 16 strains were MSSA (Methicillin-sensitive Staphylococcus aureus). The assays were performed using a serial, two-fold dilution method in 96-well microtiter plates under conditions recommended by the Clinical and Laboratory Standards Institute (CLSI, Pittsburgh, PA, USA). The aim of this procedure was the determination of the MIC parameter (Minimum Inhibitory Concentration)—the minimum concentration of a tested agent capable to inhibit the growth of a specified strain of microorganism. The agents were solubilized in deionized, sterile water to a final concentration of […]. Subsequently, solutions were mixed (1:1 (v/v)) with 2 × concentrated liquid medium, Mueller-Hinton Broth 2—cation adjusted (MHB2) for evaluation of antibacterial activity and RPMI in the case of evaluation of the antifungal activity. […] Subsequently, the solutions were mixed with MHB2 or RPMI medium to get the final concentration of 8.192 mg/mL (8192 µg/mL). In the next step, the serial, two-fold dilutions of the tested agents (over the range of concentrations from 8192 to 8 µg/mL for reference strains of bacteria and yeasts and from 512 to 1.0 µg/mL for clinical isolates of S. aureus) were prepared in 96-well microtitration plates in the final volume of 100 μL of the appropriate medium.
(§2) The pure bacterial cultures of (both the reference and clinical strains) were grown on the Mueller-Hinton Agar (MHA) for 18–24 h at 37 °C. A small amount of the biomass of the culture of each strain of microorganisms was suspended in the sterile PBS (phosphate buffered saline, pH 7.4 at 25 °C, purchased from Sigma) solution to get an optical density OD600 = 0.13 (equal to the cells concentration approximately 1 × 10^8 CFU/mL). The obtained suspensions of the cells were next diluted 1:100 (v/v) in the MHB2 medium. One hundred µL of the cells’ suspension was finally loaded into the wells of plates prepared in advance, which contained 100 µL of two-fold dilutions of the tested agents (the final concentration of the bacterial cells in all wells was approximately 5 × 10^5 CFU/mL).
(§3) The pure cultures of yeast strains were grown on the Sabouraud Dextrose Agar (SDA) for 18–24 h at 37 °C. Suspensions of the microorganisms were prepared by taking one loop of pure culture into sterile water and adjusting optical density to 0.1 at 660 nm and further 50-fold dilution in RPMI 1640 medium resulting in cells concentration of approximate 2 × 10^4 CFU/mL. One hundred μL of that suspension was inoculated to the wells of the microtitration plate containing appropriate dilutions of the agents. The positive growth control of each strain (both bacteria and yeasts) was performed in the wells without the tested substances. The negative control containing only the media was included in each assay. Microtiter plates were incubated at 37 °C for 24 h. Following the incubation period, determination of the MIC values of the tested agents was carried out by measuring the absorbance at 531 nm using a Victor^3 microplate reader (Perkin Elmer, Inc., Waltham, MA, USA). The lowest concentration of the agent causing inhibition of growth equal to or higher than 90% (MIC90) of growth control was taken as the MIC value. Each test was repeated three times. […]

Data set [3] relates to human keratinocytes (HaCaT cell line). The data set is described as follows: Cytotoxicity, MTT assay. It counts as cell-based. On the procedure:
To assess the cytotoxicity of QAS (IC50), the MTT assay on 96-well polystyrene plates was performed for human keratinocytes (HaCaT, Elabscience Biotechnology Inc., Houston, Texas, USA). The assay utilizes colorimetric determination of the cell metabolic activity and the color intensity reflects the number of live cells that can be measured spectrophotometrically. The cell line was cultured in a Dulbecco’s modified Eagle Medium (Invitrogen) supplemented with 10% fetal bovine serum (Sigma Aldrich) (v/v), 100 units/mL of penicillin, 100 μg/mL of streptomycin, and 2 mM L-glutamine and was stored at 37 °C in a humidified 5% CO2 incubator. Briefly, a day after plating of 500 cells per well, a series of concentrations (0.5–200 μg/mL) of the test compounds was applied. DMSO was added to the control cells at a final concentration of 1.0% (v/v), which was related to the maximal concentration of the solvent compounds used in the experiment. After 24 h of incubation with the QAS at 37 °C (humidified 5% CO2 incubator), a medium containing 1 mg/mL of MTT (3-(4,5-dimethylthiazol-2-yl)-2,5-diphenyltetrazolium bromide) was added to the wells up to a final concentration of 0.5 mg/mL. Subsequently, the plates were incubated at 37 °C for 4 h. Then, the medium was removed by suction, and the formazan product was solubilized with DMSO. The background absorbance at 630 nm was subtracted from that at 570 nm for each well (Epoch, BioTek Instruments, Winooski, VT, USA). Six replicates were conducted for each concentration. All experiments were repeated at least twice and the resulting IC50 values were calculated with GraFit 7 software (v. 7.0, Erithacus, Berkley, CA, USA).

Data set [4] deals with Candida glabrata DSMZ 11226. The data set is described as follows: Antimicrobial activity, microdilution MIC, C. glabrata. It counts as cell-based. On the procedure:
as §1
(§4) The pure cultures of yeast strains were grown on the Sabouraud Dextrose Agar (SDA) for 18–24 h at 37 °C. Suspensions of the microorganisms were prepared by taking one loop of pure culture into sterile water and adjusting optical density to 0.1 at 660 nm and further 50-fold dilution in RPMI 1640 medium resulting in cells concentration of approximate 2 × 10^4 CFU/mL. One hundred μL of that suspension was inoculated to the wells of the microtitration plate containing appropriate dilutions of the agents. The positive growth control of each strain (both bacteria and yeasts) was performed in the wells without the tested substances. The negative control containing only the media was included in each assay. Microtiter plates were incubated at 37 °C for 24 h. Following the incubation period, determination of the MIC values of the tested agents was carried out by measuring the absorbance at 531 nm using a Victor^3 microplate reader (Perkin Elmer, Inc., Waltham, MA, USA). The lowest concentration of the agent causing inhibition of growth equal to or higher than 90% (MIC90) of growth control was taken as the MIC value. Each test was repeated three times.

Data set [5] relates to Escherichia coli K12. The data set is described as follows: Antimicrobial activity, microdilution MIC, E. coli. It counts as cell-based. On the procedure: as §1, §2, §3
Data set [6] deals with Salmonella typhimurium TA98 strain. Conditions: TA98, no metabolic activation.
Description: A Salmonella mutagenicity test was performed with Salmonella typhimurium TA98 strain (Xenometrics AG, Allschwil, Switzerland) without metabolic activation, following the procedure by Mortelmans and Zeiger [52], with modifications reported Golunski et al. [53] […] Subsequently, the mixture was centrifuged, bacterial pellet washed with 0.75% NaCl and resuspended in 300 µL of 0.75% NaCl solution containing 0.1 µmol each of histidine and biotin, and it was then spread on a glucose minimal (GM) plate. […] All experiments were performed in triplicate. The anticancer drug doxorubicin at 90 ng/plate with known mutagenic effect towards S. typhimurium TA98 was used as a positive control.
Data set [7] concerns Candida albicans ATCC 10231. The data set is described as follows: Antimicrobial activity, microdilution MIC, C. albicans. It counts as cell-based. The settings on record: Candida albicans, ATCC10231, 24 h, read-out: MIC C. albicans ATCC 10231, MIC90, 24 h, RPMI. On the procedure: as §1, §4
For data set [8], the system named is Candida albicans ATCC 10231. Set-up: method as in PMID 16459482. Conditions: strain not stated; cited from earlier work.
For data set [9], the system named is Staphylococcus aureus ATCC 25923. Set-up: method as in PMID 23669380. Conditions: strain not stated; cited from earlier work.
For data set [10], the system named is Escherichia coli K12. Conditions: strain not stated; cited from earlier work.

Counter-ions that a name gives are not always drawn. Like-named read-outs stand apart in the source and are kept apart here. A value given as a limit tells only on which side of the number the result lay.

`NC(=O)c1ccc[n+](C2COC3C2OCC3[n+]2cccc(C(N)=O)c2)c1` (as salt: methanesulfonate) [QAS 5, N,N’-(1,4:3,6-Dianhydro-2,5-dideoxy-L-iditol-2,5-diyl)-bis[(3-carboxamide)pyridinium] Ditrifluoromethanesulfonate] registered a melting point of 63.5 to 65.2 °C.

`Cn1cc[n+](C2COC3C2OCC3[n+]2ccn(C)c2)c1` (as salt: methanesulfonate) [QAS 6, N,N’-(1,4:3,6-Dianhydro-2,5-dideoxy-L-iditol-2,5-diyl)-bis(N-methylimidazolium) Ditrifluoromethanesulfonate] showed a melting point of 90.5 to 93.7 °C.

`CCCCCC[N+](C)(C)C1COC2C1OCC2[N+](C)(C)CCCCCC` (as salt: methanesulfonate) [QAS 8, N,N’-(1,4:3,6-Dianhydro-2,5-dideoxy-L-iditol-2,5-diyl)-bis(N,N-dimethyl-N-hexylammonium) Ditrifluoromethanesulfonate]: the melting point lay in the range of 222.8 to 224 °C.

Turning to `CCCCCCCCCC[N+](C)(C)C1COC2C1OCC2[N+](C)(C)CCCCCCCCCC` (as salt: methanesulfonate) [QAS 10, N,N’-(1,4:3,6-Dianhydro-2,5-dideoxy-L-iditol-2,5-diyl)-bis(N,N-dimethyl-N-decylammonium) Ditrifluoromethanesulfonate], the melting point is 191 °C (dec.).

`CCCCCC[N+](C)(C)C1COC2C1OCC2[N+](C)(C)CCCCCC` [QAS 8, N,N’-(1,4:3,6-Dianhydro-2,5-dideoxy-L-iditol-2,5-diyl)-bis(N,N-dimethyl-N-hexylammonium) Ditrifluoromethanesulfonate]: the Solubility in water result in data set [1] is “lower solubility in water”. In data set [2] (MIC90, 24 h, MHB2), the “MIC S. aureus ATCC 25923” value turned out to be 2048 µg/mL. The MIC in data set [2] (Staphylococcus aureus, ATCC25923, 24 h, read-out: MIC S. aureus ATCC 25923, MIC90, 24 h, MHB2) is more than 4000 µg/mL; in data set [4] (Nakaseomyces glabratus, DSMZ11226, 24 h, read-out: MIC C. glabrata DSMZ 11226, MIC90, 24 h, RPMI), more than 4000 µg/mL; in the data set with Escherichia coli K12 [5] (Escherichia coli, K12, 24 h, read-out: MIC E. coli K12, MIC90, 24 h, MHB2), more than 4000 µg/mL; in data set [7] it was more than 4000 µg/mL. In addition, the IC50 in [3] (Homo sapiens, HaCaT, 24 h, read-out: HaCaT IC50) is more than 100 µg/mL. Besides, the “MIC C. glabrata DSMZ 11226” value in data set [4] (MIC90, 24 h, RPMI) was found to be 2048 µg/mL. Also, the “MIC E. coli K12” value against Escherichia coli K12 [5] (MIC90, 24 h, MHB2) is more than 4096 µg/mL. The “Number of Revertants” value was 14.7 ± 5.1 in data set [6] (concentration 4 µg/plate); 15.7 ± 1.5 in [6] (concentration 20 µg/plate); 11.0 ± 7.5 in data set [6] (concentration 100 µg/plate); 12.3 ± 3.5 in data set [6] (concentration 500 µg/plate); 12.7 ± 3.2 in [6] (concentration 2000 µg/plate).

For the compound Benzalkonium chloride [BAC], in data set [8], the “MIC against C. albicans” value is 8 µg/mL. Further, the “MIC against S. aureus” value in [9] was 2 µg/mL. The “MIC against E. coli” value with Escherichia coli K12 [10] was 13 µg/mL. For the same compound, the “HaCaT IC50” value in data set [3] (MTT, 24 h incubation) came to 1.1 ± 1.4 µg/mL.
